Laboratory results: US20230364069A1, “METHOD FOR TREATING NON-ALCOHOLIC STEATOHEPATITIS THROUGH CO-ADMINISTRATION OF CURCUMIN DERIVATIVE AND TGF-B RECEPTOR INHIBITOR” (UNIVERSITY INDUSTRY FOUNDATION, YONSEI UNIVERSITY WONJU …, priority 2021, published 2023)

Tests used:
[1] = tested on: mouse hepatocyte cell lines (AML12); experiment: Fat accumulation induced by oleic acid (BODIPY staining, Western blotting); type: cell-based; conditions: 500 μM oleic acid, 24 hours; for fat increased by oleic acid (BODIPY staining, adipophilin and SREBP1C Western blotting): 1 μM Cur5-8, 10 μM EW-7197, FIGS. 6 and 7
Procedure: Fat accumulation was induced in hepatocytes with oleic acid, curcumin derivatives were administered, and fat synthesis and degradation were confirmed.
Specifically, oleic acid was dissolved in 0.2% bovine serum albumin (BSA) at a concentration of 500 μM, and the cells of Example 1-1 were cultured for 24 hours and treated with the resultant, and also treated with 1 μM curcumin (Cur), 1 μM curcumin 5-8 (Cur5-8), 1 μM curcumin 4-8 (Cur4-8), and 1 μM curcumin 5-14 (Cur5-14) for the same period of time. Thereafter, BODIPY-fatty acid solution (Sigma, 1 mg/mL of stock DMSO solution was diluted with PBS 1× to obtain a final concentration of 0.2 μg/mL) was administered to cells cultured in an incubator of 5% CO2 at 37° C. and cultured for one hour. After washing with PBS 1×, stained cells were observed.
In addition, the cells of Example 1-1 were treated with oleic acid in the same manner as described above and treated with 1 μM curcumin (Cur), 1 μM Curcumin 5-8 (Cur5-8), and 10 μM EW-7197 (EW), and then BODIPY-fatty acid staining was performed in the same manner as above. In addition, the cells were collected after treatment, and the protein expressions of adipophilin as a fat accumulation inducing factor and SREBP1C as a fat metabolism regulator in the collected cells were checked by Western blotting. To this end, Western blotting was performed by using the collected cells in the same method as described in <Example 1-3>. At this time, an anti-β-actin antibody, an anti-adipophilin antibody, and an anti-SREBP1C antibody were used as primary antibodies.
The mouse hepatocyte cell lines were treated with oleic acid by the method described in Example 1-4 and were simultaneously treated with each of curcumin (Cur) and curcumin derivatives (Cur5-8, Cur4-8, and Cur5-14) for 24 hours, and fat was stained by BODIPY staining method. […]

[2] = tested on: C57BL/6 mice in which steatohepatitis was induced with a methionine-choline deficient diet; experiment: Steatohepatitis animal model (MCD), curcumin 5-8 and high-concentration EW-7197 (40 mg/kg); type: in vivo, mouse; conditions: for fat accumulation in the liver tissues / fibrosis of liver tissues: MCD-fed mice, EW-7197 40 mg/kg, Western blotting, FIGS. 19 to 24; for fat accumulation in the liver tissues: H&E; for fibrosis of liver tissues: Picrosirius red, Masson's trichrome
Procedure: 8-week-old male C57BL/6 mice weighing 20 to 25 g were purchased from Dae Han Bio Link Co., Ltd. (Chungbuk). Mice were acclimatized for one week under room temperature (25° C.±2° C.) in 60%±5% humidity and a 12-hour light/dark cycle. Mice were fed with a normal diet (Research Diets, RD) and allowed to drink water freely. Afterwards, the mice were randomly divided into five groups according to the fed diets or administered drugs, and the five groups were a group which was fed with a normal diet (Con), a group which was fed with a methionine-choline deficient diet (MCD), a group which was fed with a mixture of an MCD and curcumin 5-8 (1 g of curcumin 5-8 per 1 kg of the diet) (MCD+Cur5-8), a group which was fed with an MCD and to which EW-7197 was orally administered (MCD+EW), and a group which was fed with a mixture of an MCD and curcumin 5-8 and to which EW-7197 was orally administered together (MCD+EW+Cur5-8) (n=10).
EW-7197 was administered directly to the stomach by an oral administration method once every two days at 40 mg/kg. Body weights were measured every week during the experiment period, and liver tissues were harvested after 6 weeks and stored at −80° C. All experiments were performed with the approval of the Institutional Animal Care and Use Committee at Wonju College of Medicine of Yonsei University (YWC-200907-1).
In order to confirm the physiological changes in case of co-administration of a curcumin derivative (Cur5-8) and a TGF-β receptor inhibitor (EW-7197), the liver weights and the concentrations of TG, TC, AST, ALT, and γ-GT in serum were measured. In addition, hydroxyprolin expression was checked as a fibrosis marker in the liver tissues.
Specifically, the weights of the liver tissues harvested in Examples 2-1 and 2-2 were measured before storage.
In Examples 2-1 and 2-2, blood was collected after the experiment was completed, and concentrations of TG, TC, AST, ALT, and γ-GT in serum were measured. In order to measure blood glucose, triglyceride, cholesterol, and AST and ALT concentrations, ELISA kit of Asan Pharm. Co., Ltd. was purchased, and the measuring was performed. γ-GT in the liver was measured by using Mak089 of Sigma-Aldrich, and hydroxyproline was measured by using STA-675 ELISA kit of Cell Biolabs, Inc.
In addition, the hydroxyprolin expression was checked in the liver tissues harvested in Examples 2-1 and 2-2.
In order to check effects of inhibiting fat accumulation in liver tissues and fibrosis in liver tissues in case of co-administration of a curcumin derivative (Cur5-8) and a TGF-β receptor inhibitor (EW-7197), the liver tissues were stained.
The liver tissues harvested in Examples 2-1 and 2-2 were fixed with 10% formaldehyde, the formaldehyde was washed out with running water for more than 12 hours, and then washing was performed with 60% ethanol at a one-hour interval, with 70% ethanol at a one-hour interval, and with 100% ethanol at a one-hour interval. Then, the transparency process in xylene was performed three times for one hour each, and the infiltration process in paraffin was performed twice for one hour each. Then, the paraffin block was cut to a thickness of about […] to obtain slices. After deparaffinization, the slices were stained with hematoxylin and eosin (H&E staining), and blood vessels and lipid droplets in the liver tissues were checked. […]
In addition, H&E-stained liver slices were evaluated by using the NAFLD activity score (NAS) system. […]

Row | Compound | fat increased by oleic acid (BODIPY staining) ([1]; 1 μM compound, FIGS. 4 and 5) | fat increased by oleic acid (BODIPY staining, adipophilin and SREBP1C Western blotting) [1] | AST (aspartate transaminase) ([2]; MCD-fed C57BL/6 mice, 6 weeks, EW-7197 40 mg/kg oral once every two days, curcumin 5-8 1 g per 1 kg diet) | fat accumulation in the liver tissues [2] | fibrosis of liver tissues [2]
1 | COc1cc(/C=C/C(=O)c2cccc(NC(=O)C(C)C)c2)ccc1O [Cur5-8, N-{3-[(2E)-3-(4-hydroxy-3-methoxyphenyl)prop-2-enoyl]phenyl}-2-methylpropanamide] | most effectively reduced fat | reduced the fat increased by oleic acid | 119.9 ± 3.80 IU/L | reduced | not improved
2 | Cc1cccc(-c2[nH]c(CNc3ccccc3F)nc2-c2ccc3ncnn3c2)n1 [EW-7197, N-(2-fluorophenyl)-5-(6-methyl-2-pyridinyl)-4-[1,2,4]triazolo[1,5-a]pyridin-6-yl-1H-imidazole-2-methanamine] | – | promotes the fat increase caused by oleic acid | – | not inhibited | inhibited
